The data set in a line: solvent given as SMILES.
Setting [1] is: in c1ccc2c(c1)c1ccccc1n2-c1ccc(-c2ccc(-n3c4ccccc4c4ccccc43)cc2)cc1.
Where [2] appears, read: in c1cc(-c2cccc(-n3c4ccccc4c4ccccc43)c2)cc(-n2c3ccccc3c3ccccc32)c1.

With `F[B-]1(F)OC(c2ccccc2)=Nc2sc(-c3ccccc3)n[n+]21`, the emission maximum runs as follows: (in C1CCOC1) 402 nm; (in CC#N) 415 nm; (in CCO) 409 nm; (in CCOC(C)=O) 411 nm; (in CN(C)C=O) 419 nm; (in Cc1ccccc1) 410 nm. Moreover, the emission maximum (in ClC(Cl)Cl) was 413 nm and the emission maximum (in ClCCl) was 412 nm.

Where the note is “in ClCCl”, `Fc1ccc(C#Cc2nc(C#Cc3ccc(F)cc3)c(C#Cc3ccc(F)cc3)c(C#Cc3ccc(F)cc3)c2C#Cc2ccc(F)cc2)cc1` had an emission maximum of 436 nm.

In the case of `C(S/C=C/c1ccc(/C=C/SC=C2CCCCCC2)cc1)=C1CCCCCC1`, the emission maximum (in ClCCl) turned out to be 422 nm.

With `N#Cc1cc2ccc(C(F)(F)F)cc2c2c1ccc1ccccc12`, the emission maximum (in ClC(Cl)Cl) came to 408 nm.

Under “in ClCCl”, `COc1cc(-c2ncc(-c3ccncc3)o2)cc(OC)c1OC` had an emission maximum of 417 nm.

Consider `CN(C)c1ccc2c(c1)C(=O)NC2=O`, for which the emission maximum runs as follows: (in C1CCOC1) 459 nm; (in C1COCCO1) 457 nm; (in CC#N) 490 nm; (in CC(C)(C)O) 516 nm; (in CC(C)=O) 483 nm; (in CC(C)O) 523 nm. For the same molecule, the emission maximum is recorded as 440 nm (in CCOCC), 534 nm (in CO) and 562 nm (in O).

For `CC(C)c1cccc(C(C)C)c1N1C(c2ccccc2)=Cc2ccc3ccccc3[n+]2[B-]1(F)F`, under “in ClCCl”, the emission maximum stood at 472 nm.

`O=C(O)CCCCCn1c2ccccc2c(=O)c2cc(F)ccc21`: the emission maximum (in O) is 432 nm.

As for `CC1(C)Cc2c(c3ccccc3c3nc4ccccc4nc23)O1`, the emission maximum was 475.96 nm (in C1CCCCC1); 505.05 nm (in C1CCOC1); 521.92 nm (in CN(C)C=O); 529.1 nm (in CO); 505.05 nm (in ClC(Cl)Cl); 483.09 nm (in c1ccccc1).

As for `CCN(CC)c1ccc2c(-c3ccccc3C(=O)O)c3c([o+]c2c1)/C(=C/c1nc(C)n2ccccc12)CCC3`, the emission maximum (in ClCCl) is given as 735 nm.

Under “in ClC(Cl)Cl”, `CCCCCCCCCCCCOc1cc2c3c(ccc4c5c(NC6CCCCC6)cc6c7c(ccc(c1c34)c75)C(=O)N(C1CCCCC1)C6=O)C(=O)N(C1CCCCC1)C2=O` displayed an emission maximum of 722 nm.

On to `O=C(c1ccc(N2c3ccccc3Oc3ccccc32)cc1)c1ccc2sc3ccccc3c2c1`, for which the emission maximum was 594 nm (in C1CCOC1) and 524 nm under setting [1].

In the case of `CC(C)c1cc(C(C)C)c(-c2nnc(-c3ccc(-n4c5ccccc5c5ccccc54)cc3)o2)c(C(C)C)c1`, the emission maximum by setting is: (in CCO) 435 nm; (in Cc1ccccc1) 377 nm.

In the case of `COc1cc(OC)cc(-c2ccc(C3=CC(c4ccccc4)=C(c4ccccc4)C3)cc2)c1`, the emission maximum (in ClCCl) is 455 nm.

On to `CC(C)(C)c1ccc2c(c1)c1cc(C(C)(C)C)ccc1n2-c1cc(C(=O)c2ccccc2)cc(-n2c3ccc(C(C)(C)C)cc3c3cc(C(C)(C)C)ccc32)c1`, for which the emission maximum reads like this: (in Cc1ccccc1) 466.36 nm; under setting [2], 470.81 nm.

`O=C([O-])c1c2ccccc2c(C(=O)[O-])c2ccccc12` registered an emission maximum (in CN(C)C=O) of 410 nm.

With `CN(CCO)c1ccc(/C=C/C2=CC(=C(C#N)C#N)CC(C)(C)C2)cc1`, the emission maximum turned out to be 651 nm (in CC#N); 648 nm (in CC(C)=O); 649 nm (in CCCCO); 612 nm (in ClC(Cl)Cl); 634 nm (in ClCCl); 588 nm (in c1ccccc1).

Under “in ClCCl”, `CCCCN1C(=O)c2cccc3c(C#CC#Cc4ccc5c6c(cccc46)C(=O)N(CCCC)C5=O)ccc(c23)C1=O` had an emission maximum of 432 nm.

Regarding `CC(C)(C)c1ccc(-c2cc(-c3ccc(-c4cc(-c5ccc(C(C)(C)C)cc5)c(C(=O)N5CCCCC5)s4)s3)sc2C(=O)N2CCCCC2)cc1`, the emission maximum (in ClCCl) was 461 nm.

Consider `C=Cc1cc2cc3c(cc2oc1=O)OCO3`, for which the emission maximum (in CC#N) turned out to be 448 nm.

As for `CC[N+]1=C(/C=C/C=C/C=C/C=C2/N(CCCCCC(=O)O)c3ccccc3C2(C)C)C(C)(C)c2cc(S(=O)(=O)[O-])ccc21`, the emission maximum was 775 nm (in CO) and 769 nm (in O).

For the molecule `CC1=[N+]2C(=C(c3ccc4c(c3)Cc3ccccc3-4)c3ccc(C)n3[B-]2(F)F)C=C1c1cc2n(c1)[B-](F)(F)[N+]1=CC=CC1=C2c1c(C)cc(C)cc1C`, the emission maximum reads like this: (in C1CCCCC1) 645 nm; (in CCOC(C)=O) 675 nm.

Turning to `Cc1ccc(N2C(c3ccccc3[N-]S(=O)(=O)c3ccc(C)cc3)=[NH+]C(c3ccccc3)C2c2ccccc2)cc1` (stereo not given), the emission maximum (in Cc1ccccc1) is recorded as 499 nm.

As to `COc1ccc(C#Cc2nc3ccccc3nc2-c2cn(C)c3ccccc23)cc1`, the emission maximum came out at 490 nm (in C1CCOC1); 518 nm (in CC#N); 513 nm (in CC(C)=O); 519 nm (in CC(C)O); 522 nm (in CCO); 491 nm (in CCOC(C)=O). The emission maximum (in CO) is reported as 525 nm, the emission maximum (in Cc1ccccc1) worked out at 468 nm and the emission maximum (in ClCCl) turned out to be 506 nm.

For `Cc1nc(-c2ccccc2O)n2c1CCCC2`, the emission maximum (in ClCCl) amounted to 452 nm.

With `Cc1cc(-n2c3ccccc3c3ccccc32)c(-n2c3ccccc3c3ccccc32)cc1C#N`, the emission maximum by setting is: under setting [2], 485 nm; (in c1ccc2c(c1)c1ccccc1n2-c1ccc2sc3ccc(-n4c5ccccc5c5ccccc54)cc3c2c1) 489 nm; (in c1ccc2c(c1)c1ccccc1n2-c1ccc2sc3ccc(-n4c5ccccc5c5cccnc54)cc3c2c1) 495 nm; (in c1ccc2c(c1)c1cccnc1n2-c1ccc2sc3ccc(-n4c5ccccc5c5cccnc54)cc3c2c1) 498 nm.

Regarding `CN1C(=O)/C(=C/c2ccncc2)N=C1/C=C/c1ccncc1`, the emission maximum by setting is: (in C1COCCO1) 537 nm; (in CC#N) 541 nm; (in CCO) 545 nm; (in CCOC(C)=O) 535 nm; (in O) 542 nm.

The molecule `CN1C(=CC2=C([O-])C(=Cc3oc4ccccc4[n+]3C)C2=C(C#N)C#N)Sc2ccccc21` came in with an emission maximum (in ClC(Cl)Cl) of 682 nm.

The molecule `COc1cc(OC)cc(C(=O)OCc2c(C)c(=O)n3c(=O)c(C)c(C)n23)c1` registered an emission maximum (in CCO) of 462 nm.

`O=C1c2ccc(-c3ccc(N(c4ccc(-c5ccccc5)cc4)c4ccc(-c5ccccc5)cc4)cc3)cc2C(=O)c2ccc(-c3ccc(N(c4ccc(-c5ccccc5)cc4)c4ccc(-c5ccccc5)cc4)cc3)cc21` came in with an emission maximum (in Cc1ccccc1) of 608 nm and an emission maximum under setting [1] of 601 nm.

In the case of `CC(C)(C)c1ccc2c(c1)c1cc3c4cc(C(C)(C)C)ccc4c4c5c6ccc(C(C)(C)C)cc6c6cc7c8cc(C(C)(C)C)ccc8c8c2c1c(c34)c(c78)c65`, the emission maximum runs as follows: (in CCCCCC) 679.35 nm; (in CCOCC) 679.9 nm; (in Cc1ccccc1) 685.4 nm.

Consider `O=C1c2ccccc2-c2c(-c3ccccc3)c(-c3ccccc3)c(-c3ccccc3)c3cccc1c23`, for which the emission maximum is reported as 498 nm (in CC#N) and 521 nm (in CO).

For the molecule `COC(=O)[C@H](Cc1ccc2oc3c(c2c1)=CC1=C(c2ccc(OC)cc2)c2cc4c5cc(C[C@H](NC(=O)OC(C)(C)C)C(=O)OC)ccc5oc4n2[B-](F)(F)[N+]=31)NC(=O)OC(C)(C)C`, the emission maximum turned out to be 596.5 nm (in C1CCCCC1), 597 nm (in CCOC(C)=O) and 595 nm (in CO).

`N#C/C(=C\c1ccc(C=C(c2ccccc2)c2ccccc2)cc1)c1ccc([N+](=O)[O-])cc1` returned an emission maximum (in C1CCOC1) of 552 nm.

The record behind these values is the Deep4Chem optical property database.
